Laboratory results as given in patent US20250059185A1 (Hoffmann-La Roche Inc., priority 2021, published 2025).

What follows are molecules tested against MAGL (Homo sapiens (Human), UniProt Q99685) (assay: 2-AG assay (MAGL inhibitory activity, hydrolysis of 2-arachidonoylglycerol followed by mass spectrometry)). Conditions: 50 pM MAGL protein, 15 min pre-incubation, 30 min incubation at RT.
Type: biochemical
From the text: Compounds of formula (II) were profiled for MAGL inhibitory activity by determining the enzymatic activity by following the hydrolysis of the natural substrate 2-arachidonoylglycerol (2-AG) resulting in arachidonic acid, which can be followed by mass spectrometry. This assay is hereinafter abbreviated “2-AG assay”.
Compounds of formula (II) were profiled for MAGL inhibitory activity by determining the enzymatic activity by following the hydrolysis of the natural substrate 2-arachidonoylglycerol (2-AG) resulting in arachidonic acid, which can be followed by mass spectrometry. This assay is hereinafter abbreviated “2-AG assay”. The 2-AG assay was carried out in 384 well polypropylene assay plates. Compound dilutions were made in 100% DMSO in a polypropylene plate in 3-fold dilution steps to give a final concentration range in the assay from 12.5 μM to 0.8 pM. Compound dilutions were added to MAGL protein in assay buffer (50 mM TRIS, 1 mM EDTA, 0.01% (v/v) Tween-20, 2.5% (v/v) DMSO). After shaking, the plate was incubated for 15 min at RT. To start the reaction, 2-arachidonoylglycerol in assay buffer was added. The final concentrations in the assay was 50 pM for MAGL protein and […] 2-arachidonoylglyerol. After shaking and 30 min incubation at RT, the reaction was quenched by the addition of two assay volumes of acetonitrile containing 4 μM of d8-arachidonic acid. The amount of arachidonic acid formed was traced by an online SPE system (Agilent Rapidfire) coupled to a triple quadrupole mass spectrometer. A C18 SPE cartridge (Agilent G9205A) was used in an acetonitrile/water liquid setup. The mass spectrometer was operated in negative electrospray mode following the mass transitions 303.1→259.1 for arachidonic acid and 311.1→267.0 for d8-arachidonic acid. The activity of the compounds was calculated based on the ratio of intensities [arachidonic acid/d8-arachidonic acid].

MAGL, sequence (Q99685 whole entry, species assumed): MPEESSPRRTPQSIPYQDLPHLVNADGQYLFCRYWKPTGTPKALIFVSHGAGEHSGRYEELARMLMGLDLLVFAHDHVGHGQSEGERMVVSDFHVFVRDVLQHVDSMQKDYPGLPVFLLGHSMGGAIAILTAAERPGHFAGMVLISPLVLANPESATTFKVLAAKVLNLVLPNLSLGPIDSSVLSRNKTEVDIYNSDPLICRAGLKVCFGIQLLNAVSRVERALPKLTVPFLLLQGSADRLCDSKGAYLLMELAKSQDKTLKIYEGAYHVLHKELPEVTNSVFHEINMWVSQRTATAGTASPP

IC50 [nM]	SMILES
169	CC1c2nn(C)c(-c3cc(F)cc(F)c3)c2CCN1C(=O)c1cc(F)cc(OCC2CNC(=O)C2)c1Cl (single isomer, unassigned) [Example 39, 4-[[2-Chloro-3-[3-(3,5-difluorophenyl)-2,7-dimethyl-5,7-dihydro-4H-pyrazolo[3,4-c]pyridine-6-carbonyl]-5-fluoro-phenoxy]methyl]pyrrolidin-2-one]
1.53	C[C@H]1c2nn(C)c(-c3cc(F)cc(F)c3)c2CCN1C(=O)c1cc(F)cc(CCc2cn[nH]c2)c1Cl [Example 102, [2-chloro-5-fluoro-3-[2-(JH-pyrazol-4-yl)ethyl]phenyl]-[(7S)-3-(3,5-difluorophenyl)-2,7-dimethyl-5,7-dihydro-4H-pyrazolo[3,4-c]pyridin-6-yl]methanone]
42.4	C[C@H]1c2nn(C)c(-c3cc(F)cc(F)c3)c2CCN1C(=O)c1cc(F)cc(CCc2c[nH]nn2)c1Cl [Example 104, [2-chloro-5-fluoro-3-[2-(JH-triazol-4-yl)ethyl]phenyl]-[(7S)-3-(3,5-difluorophenyl)-2,7-dimethyl-5,7-dihydro-4H-pyrazolo[3,4-c]pyridin-6-yl]methanone]
5.97	C[C@H]1c2nn(C)c(-c3cc(F)cc(F)c3)c2CCN1C(=O)c1cc(F)cc(C2=CC(Cl)C(=O)N=C2)c1Cl (stereo partly drawn) [Example 98, 3-chloro-5-[2-chloro-3-[(7S)-3-(3,5-difluorophenyl)-2,7-dimethyl-5,7-dihydro-4H-pyrazolo[3,4-c]pyridine-6-carbonyl]-5-fluoro-phenyl]-3H-pyridin-2-one]
104	C[C@H]1c2nn(C)c(-c3cc(F)cc(F)c3)c2CCN1C(=O)c1ncn(-c2cc(Cl)cnc2O)n1 [Example 35, [1-(5-Chloro-2-hydroxy-3-pyridyl)-1,2,4-triazol-3-yl]-[(7S)-3-(3,5-difluorophenyl)-2,7-dimethyl-5,7-dihydro-4H-pyrazolo[3,4-c]pyridin-6-yl]methanone]
1460	C[C@H]1c2nn(C)c(-c3cc(F)cc(F)c3)c2CCN1C(=O)c1ncn(-c2ccc[nH]c2=O)c1Cl [Example 77, 3-[5-chloro-4-[(7S)-3-(3,5-difluorophenyl)-2,7-dimethyl-5,7-dihydro-4H-pyrazolo[3,4-c]pyridine-6-carbonyl]imidazol-1-yl]-1H-pyridin-2-one]
293	CC1c2nn(C)c(-c3cc(F)cc(F)c3)c2CCN1C(=O)c1cc(F)cc(OCC2CNC(=O)C2)c1Cl (racemic) [Example 40, 4-[[2-Chloro-3-[3-(3,5-difluorophenyl)-2,7-dimethyl-5,7-dihydro-4H-pyrazolo[3,4-c]pyridine-6-carbonyl]-5-fluoro-phenoxy]methyl]pyrrolidin-2-one]

The next lines start with the molecule.

SMILES	IC50 [nM]
COCCOc1cc(Cl)cc(-c2c3c(nn2C)[C@@H](C)N(C(=O)c2cccc(OC)c2Cl)CC3)c1 [Example 79, [(7R)-3-[3-chloro-5-(2-methoxyethoxy)phenyl]-2,7-dimethyl-5,7-dihydro-4H-pyrazolo[3,4-c]pyridin-6-yl]-(2-chloro-3-methoxy-phenyl)methanone]	1240
CC1c2nn(C)c(-c3cc(F)cc(F)c3)c2CCN1C(=O)c1cc(F)cc(OCC2(C(F)(F)F)CC2)c1Cl (stereo not shown) [Example 27, [2-Chloro-5-fluoro-3-[[1-(trifluoromethyl)cyclopropyl]methoxy]phenyl]-[3-(3,5-difluorophenyl)-2,7-dimethyl-5,7-dihydro-4H-pyrazolo[3,4-c]pyridin-6-yl]methanone]	88
CC1c2nn(C)c(-c3cc(Cl)cc(C4(NS(C)(=O)=O)CC4)c3)c2CCN1C(=O)c1cc(F)cc(-c2cc[nH]c(=O)c2)c1Cl (stereo not shown) [Example 57, N-[1-[3-Chloro-5-[6-[2-chloro-5-fluoro-3-(2-oxo-1H-pyridin-4-yl)benzoyl]-2,7-dimethyl-5,7-dihydro-4H-pyrazolo[3,4-c]pyridin-3-yl]phenyl]cyclopropyl]methanesulfonamide]	115
C[C@@H]1c2nn(C)c(-c3cc(Cl)cc(C4(C(N)=O)CC4)c3)c2CCN1C(=O)c1cc(F)cc(N2CC3(C2)CS(=O)(=O)C3)c1Cl [Example 76, 1-[3-chloro-5-[(7R)-6-[2-chloro-3-(2,2-dioxo-2λ^6-thia-6-azaspiro[3.3]heptan-6-yl)-5-fluoro-benzoyl]-2,7-dimethyl-5,7-dihydro-4H-pyrazolo[3,4-c]pyridin-3-yl]phenyl]cyclopropanecarboxamide]	1420
COc1cccc(C(=O)N2CCc3c(nn(C)c3-c3cnc(C(F)(F)F)nc3)[C@@H]2C)c1Cl [Example 9, (2-Chloro-3-methoxy-phenyl)-[(7S)-2,7-dimethyl-3-[2-(trifluoromethyl)pyrimidin-5-yl]-5,7-dihydro-4H-pyrazolo[3,4-c]pyridin-6-yl]methanone]	311
COc1cccc(C(=O)N2CCc3c(nn(C)c3-c3ccnc(C(F)(F)F)n3)[C@@H]2C)c1Cl [Example 81, (2-chloro-3-methoxy-phenyl)-[(7S)-2,7-dimethyl-3-[2-(trifluoromethyl)pyrimidin-4-yl]-5,7-dihydro-4H-pyrazolo[3,4-c]pyridin-6-yl]methanone]	21
CNS(=O)(=O)Cc1cc(Cl)cc(-c2c3c(nn2C)[C@H](C)N(C(=O)c2cccc(OC)c2Cl)CC3)c1 [Example 3, 1-[3-Chloro-5-[(7S)-6-(2-chloro-3-methoxy-benzoyl)-2,7-dimethyl-5,7-dihydro-4H-pyrazolo[3,4-c]pyridin-3-yl]phenyl]-N-methyl-methanesulfonamide]	63
CC1c2nn(C)c(-c3cc(Cl)cc(C4(C(N)=O)CC4)c3)c2CCN1C(=O)c1cc(F)cc(OCC2CNC(=O)C2)c1Cl (stereo not shown) [Example 70, 1-[3-chloro-5-[6-[2-chloro-5-fluoro-3-[(5-oxopyrrolidin-3-yl)methoxy]benzoyl]-2,7-dimethyl-5,7-dihydro-4H-pyrazolo[3,4-c]pyridin-3-yl]phenyl]cyclopropanecarboxamide]	42
C[C@H]1c2nn(C)c(-c3cncc(C(F)(F)F)n3)c2CCN1C(=O)c1cc(F)cc(-c2c[nH]c(C#N)c2)c1Cl [Example 64, 4-[2-chloro-3-[(7S)-2,7-dimethyl-3-[6-(trifluoromethyl)pyrazin-2-yl]-5,7-dihydro-4H-pyrazolo[3,4-c]pyridine-6-carbonyl]-5-fluoro-phenyl]-1H-pyrrole-2-carbonitrile]	13
COc1cccc(C(=O)N2CCc3c(nn(C)c3-c3cc(Cl)cc(CS(C)(=O)=O)c3)[C@@H]2C)c1Cl [Example 6, (2-Chloro-3-methoxy-phenyl)-[(7S)-3-[3-chloro-5-(methylsulfonylmethyl)phenyl]-2,7-dimethyl-5,7-dihydro-4H-pyrazolo[3,4-c]pyridin-6-yl]methanone]	84
C[C@H]1c2nn(C)c(-c3cc(Cl)cc(C4(C(N)=O)CC4)c3)c2CCN1C(=O)c1cc(F)cc(-c2c[nH]c(C#N)c2)c1Cl [Example 71, 1-[3-chloro-5-[(7S)-6-[2-chloro-3-(5-cyano-1H-pyrrol-3-yl)-5-fluoro-benzoyl]-2,7-dimethyl-5,7-dihydro-4H-pyrazolo[3,4-c]pyridin-3-yl]phenyl]cyclopropanecarboxamide]	2160
COc1cccc(C(=O)N2CCc3c(nn(C)c3-c3cc(Cl)cc(CC(N)=O)c3)[C@@H]2C)c1Cl [Example 14, 2-[3-Chloro-5-[(7S)-6-(2-chloro-3-methoxy-benzoyl)-2,7-dimethyl-5,7-dihydro-4H-pyrazolo[3,4-c]pyridin-3-yl]phenyl]acetamide]	41
